Data as given in patent US4296112A, “Cephalosporins” (Mitsui Toatsu Chemicals, Inc., priority 1979, dated 1981).
Read-outs that look alike come from different tables or passages of the source.

Experiments:
[1] = tested on: Pseudomonas aeruginosa (NCTC 7244); experiment: Minimum bactericidal concentration (Referential Example 2, Table 2); type: cell-based; settings: NCTC7244, 18 h, subculture on HIA medium
Experimental: (§1) The compounds obtained in Synthesis Examples 1 to 4 were tested in the following manner.
(§2) A suspension of Pseudomonas aeruginosa (NCTC 7244) cultivated at 37° C. for 18 hours in a heart infusion broth medium (HIB medium) in a final amount of 10^5, 10^6 and 10^7 cells/ml in an HIB medium containing each of the test compounds which was obtained in the same way as in Referential Example 1 except that the maximum concentration of the test compound was 200 μg/ml. The bacterial strain was cultivated at 37° C. for 18 hours, and the turbidity of the culture broth was evaluated with the naked eye. The minimum concentration of the test compound at which no turbidity was noted was defined as MIC.
The growth of the bacterial strain was evaluated.

[2] = tested on: Pseudomonas aeruginosa (ATCC 10145); experiment: MIC, agar plate dilution (Referential Example 1, Table 1); type: cell-based; settings: ATCC10145, HIA medium plate, 37° C., 18 hours, read-out: Minimum growth inhibitory concentration (MIC)
Experimental: (§3) The antibacterial activities of the cephalosporins of this invention were measured using the sodium salts of the compounds obtained in Synthesis Examples 1 and 2. The procedure and the results are shown in Referential Example 1.
(§4) Carbenicillin sodium salt (CB-PC) and cephazoline sodum salt (CEZ) were used as controls.
(§5) The antibacterial activities of the test compounds against various Gram-positive and Gram-negative bacteria were determined in a customary manner by the minimum growth inhibitory concentration method (MIC method).
(§6) The experimental procedure was as follows:
(§7) A commercially available heart infusion agar medium (to be abbreviated HIA medium) was used as an assay medium, and a commercially available trypto-soy bouillon medium (to be abbreviated TSB) was used as a medium for the growth of test bacterial strains.
(§8) The test compound was diluted with the melted HIA medium to 100 μg/ml as a maximum concentration, and then serially diluted double. The dilutions were poured into sterilized Petri dishes respectively and allowed to cool and solidify to prepare plates containing the test compound.
(§9) The test bacterial strain was cultivated at 37° C. for 18 to 24 hours in the TSB medium. The culture broth was diluted to 50 to 500 times with a freshly prepared TSB culture medium, and one platinum loopful of the dilution was inoculated in each of the plates containing the test compound.

[3] = tested on: Klebsiella pneumonia (F-5089); experiment: as above; type: cell-based; settings: Klebsiella pneumoniae; HIA medium plate, 37° C., 18 hours; read-out: Minimum growth inhibitory concentration (MIC)
Experimental: as §3, §4, §5, §6, §7, §8, §9

[4] = tested on: Staphylococcus aureus (Y-8); experiment: as above; type: cell-based; settings: HIA medium plate, 37° C., 18 hours, read-out: Minimum growth inhibitory concentration (MIC)
Experimental: as §3, §4, §5, §6, §7, §8, §9

[5] = tested on: Bacillus cereus (IAM 1792); experiment: as above; type: cell-based; settings: IAM1792, HIA medium plate, 37° C., 18 hours, read-out: Minimum growth inhibitory concentration (MIC)
Experimental: as §3, §4, §5, §6, §7, §8, §9

[6] = tested on: Klebsiella pneumoniae (Horino); experiment: as above; type: cell-based; settings: HIA medium plate, 37° C., 18 hours, read-out: Minimum growth inhibitory concentration (MIC)
Experimental: as §3, §4, §5, §6, §7, §8, §9

[7] = tested on: Enterobacter aerogenes (IFO 3320); experiment: as above; type: cell-based; settings: Klebsiella aerogenes, read-out: Minimum growth inhibitory concentration (MIC)
Experimental: as §3, §4, §5, §6, §7, §8, §9

Shigella flexneri (K-A) = experiment: as above; type: cell-based; settings: HIA medium plate, 37° C., 18 hours, read-out: Minimum growth inhibitory concentration (MIC)
Experimental: as §3, §4, §5, §6, §7, §8, §9

[8] = tested on: Pseudomonas aeruginosa (NCTC 7244); experiment: as above; type: cell-based; settings: NCTC7244, HIA medium plate, 37° C., 18 hours, read-out: Minimum growth inhibitory concentration (MIC)
Experimental: as §3, §4, §5, §6, §7, §8, §9

Proteus vulgaris (OX-19) = experiment: as above; type: cell-based; settings: read-out: Minimum growth inhibitory concentration (MIC)
Experimental: as §3, §4, §5, §6, §7, §8, §9

[9] = tested on: Pseudomonas aeruginosa (S-1); experiment: as above; type: cell-based; settings: HIA medium plate, 37° C., 18 hours, read-out: Minimum growth inhibitory concentration (MIC)
Experimental: as §3, §4, §5, §6, §7, §8, §9

[10] = tested on: Citrobacter freundii (F-34); experiment: as above; type: cell-based; settings: HIA medium plate, 37° C., 18 hours, read-out: Minimum growth inhibitory concentration (MIC)
Experimental: as §3, §4, §5, §6, §7, §8, §9

[11] = tested on: Enterobacter cloacae (D-49); experiment: as above; type: cell-based; settings: HIA medium plate, 37° C., 18 hours, read-out: Minimum growth inhibitory concentration (MIC)
Experimental: as §3, §4, §5, §6, §7, §8, §9

[12] = tested on: Serratia marcescens (S-33); experiment: as above; type: cell-based; settings: HIA medium plate, 37° C., 18 hours, read-out: Minimum growth inhibitory concentration (MIC)
Experimental: as §3, §4, §5, §6, §7, §8, §9

[13] = tested on: Pseudomonas aeruginosa (F1629); experiment: as above; type: cell-based; settings: HIA medium plate, 37° C., 18 hours, read-out: Minimum growth inhibitory concentration (MIC)
Experimental: as §3, §4, §5, §6, §7, §8, §9

Proteus morganii (C-39) = experiment: as above; type: cell-based; settings: Morganella morganii; HIA medium plate, 37° C., 18 hours; read-out: Minimum growth inhibitory concentration (MIC)
Experimental: as §3, §4, §5, §6, §7, §8, §9

Proteus rettgeri (T-2) = experiment: as above; type: cell-based; settings: Providencia rettgeri; HIA medium plate, 37° C., 18 hours; read-out: Minimum growth inhibitory concentration (MIC)
Experimental: as §3, §4, §5, §6, §7, §8, §9

[14] = tested on: Klebsiella pneumoniae (B-172); experiment: as above; type: cell-based; settings: HIA medium plate, 37° C., 18 hours, read-out: Minimum growth inhibitory concentration (MIC)
Experimental: as §3, §4, §5, §6, §7, §8, §9

[15] = tested on: Staphylococcus aureus (FDA 209P); experiment: as above; type: cell-based; settings: FDA209P, read-out: Minimum growth inhibitory concentration (MIC)
Experimental: as §3, §4, §5, §6, §7, §8, §9

[16] = tested on: Salmonella enteritidis (KB-21); experiment: as above; type: cell-based; settings: Salmonella enterica, 18 h, read-out: Minimum growth inhibitory concentration (MIC)
Experimental: as §3, §4, §5, §6, §7, §8, §9

Escherichia coli (26RO3) = experiment: as above; type: cell-based; settings: HIA medium plate, 37° C., 18 hours, read-out: Minimum growth inhibitory concentration (MIC)
Experimental: as §3, §4, §5, §6, §7, §8, §9

[17] = tested on: Escherichia coli (14H114); experiment: as above; type: cell-based; settings: HIA medium plate, 37° C., 18 hours, read-out: Minimum growth inhibitory concentration (MIC)
Experimental: as §3, §4, §5, §6, §7, §8, §9

[18] = tested on: Klebsiella pneumoniae (ATCC 10031); experiment: as above; type: cell-based; settings: read-out: Minimum growth inhibitory concentration (MIC)
Experimental: as §3, §4, §5, §6, §7, §8, §9

[19] = tested on: Streptococcus faecalis (Hoshi); experiment: as above; type: cell-based; settings: Enterococcus faecalis; HIA medium plate, 37° C., 18 hours; read-out: Minimum growth inhibitory concentration (MIC)
Experimental: as §3, §4, §5, §6, §7, §8, §9

Escherichia coli (NIHJ) = experiment: as above; type: cell-based; settings: HIA medium plate, 37° C., 18 hours, read-out: Minimum growth inhibitory concentration (MIC)
Experimental: as §3, §4, §5, §6, §7, §8, §9

[20] = tested on: Pseudomonas aeruginosa (718); experiment: as above; type: cell-based; settings: HIA medium plate, 37° C., 18 hours, read-out: Minimum growth inhibitory concentration (MIC)
Experimental: as §3, §4, §5, §6, §7, §8, §9

Escherichia coli (K-12) = experiment: as above; type: cell-based; settings: HIA medium plate, 37° C., 18 hours, read-out: Minimum growth inhibitory concentration (MIC)
Experimental: as §3, §4, §5, §6, §7, §8, §9

[21] = tested on: Pseudomonas aeruginosa (395); experiment: as above; type: cell-based; settings: HIA medium plate, 37° C., 18 hours, read-out: Minimum growth inhibitory concentration (MIC)
Experimental: as §3, §4, §5, §6, §7, §8, §9

[22] = tested on: Pseudomonas maltophilia (F-6257); experiment: as above; type: cell-based; settings: Stenotrophomonas maltophilia; HIA medium plate, 37° C., 18 hours; read-out: Minimum growth inhibitory concentration (MIC)
Experimental: as §3, §4, §5, §6, §7, §8, §9

[23] = tested on: Pseudomonas aeruginosa (IFO-3901); experiment: as above; type: cell-based; settings: IFO3901, HIA medium plate, 37° C., 18 hours, read-out: Minimum growth inhibitory concentration (MIC)
Experimental: as §3, §4, §5, §6, §7, §8, §9

[24] = tested on: Pseudomonas aeruginosa (NCTC 7244); experiment: MIC in HIB medium by turbidity (Referential Example 2, Table 2); type: cell-based; settings: NCTC7244, 18 h, 37° C.
Experimental: as §1, §2

Pseudomonas aeruginosa = settings: background art, in words; cited from earlier work
[25] = tested on: Gram-positive or Gram-negative bacteria; settings: background art, in words; cited from earlier work
[26] = HIA medium plate, 37° C., 18 hours

CC1(C)S[C@@H]2[C@H](NC(=O)C(C(=O)O)c3ccccc3)C(=O)N2[C@H]1C(=O)O (stereo partly drawn) [CB-PC, disodium-α-carboxybenzyl penicillin]
MBC ([1]; 10^5 cells/ml inoculated): 100 µg/mL
MBC ([1]; 10^6 cells/ml inoculated): 100 µg/mL
MBC ([1]; 10^7 cells/ml inoculated): > 200 µg/mL
MIC [2]: > 100 µg/mL
MIC [3]: 50 µg/mL
MIC [4]: 12.5 µg/mL
MIC [5]: 100 µg/mL
MIC [6]: 100 µg/mL
MIC ([7]; IFO3320, 18 h): 1.56 µg/mL
MIC (Shigella flexneri (K-A)): 1.56 µg/mL
MIC [8]: 100 µg/mL
MIC (Proteus vulgaris (OX-19); [26]): 6.25 µg/mL
MIC [9]: 25 µg/mL
MIC [10]: 3.13 µg/mL
MIC [11]: > 100 µg/mL
MIC [12]: 6.25 µg/mL
MIC [13]: > 100 µg/mL
MIC (Proteus morganii (C-39)): 6.25 µg/mL
MIC (Proteus rettgeri (T-2)): 3.13 µg/mL
MIC [14]: 25 µg/mL
MIC ([15]; 18 h): 1.56 µg/mL
MIC [16]: 1.56 µg/mL
MIC (Escherichia coli (26RO3)): 3.13 µg/mL
MIC [17]: > 100 µg/mL
MIC ([18]; ATCC10031, HIA medium plate, 37° C., 18 hours): > 100 µg/mL
MIC [19]: 50 µg/mL
MIC (Escherichia coli (NIHJ)): 6.25 µg/mL
MIC [20]: > 100 µg/mL
MIC (Escherichia coli (K-12)): 6.25 µg/mL
MIC [21]: 25 µg/mL
MIC [22]: 25 µg/mL
MIC [23]: 100 µg/mL
MIC ([24]; 10^5 cells/ml inoculated): 50 µg/mL
MIC ([24]; 10^6 cells/ml inoculated): 100 µg/mL
MIC ([24]; 10^7 cells/ml inoculated): 200 µg/mL
activity on Pseudomonas aeruginosa (Pseudomonas aeruginosa): low activity on Pseudomonas aeruginosa
effectiveness for infections caused by Pseudomonas aeruginosa (Pseudomonas aeruginosa): ineffective for Pseudomonas aeruginosa-induced infections of difficultly curable nature

Cc1nnc(SCC2=C(C(=O)O)N3C(=O)[C@@H](NC(=O)Cn4cnnn4)[C@H]3SC2)s1 [CEZ, sodium 7-[1-(1H)-tetrazoylacetamido]-3-[2-(5-methyl-1,3,4thiadiazoyl)-thiomethyl]-Δ^3-cephem-4-carboxylate]
MBC ([1]; 10^5 cells/ml inoculated): > 200 µg/mL
MBC ([1]; 10^6 cells/ml inoculated): > 200 µg/mL
MBC ([1]; 10^7 cells/ml inoculated): > 200 µg/mL
MIC [2]: > 100 µg/mL
MIC [3]: 3.13 µg/mL
MIC [4]: 0.78 µg/mL
MIC [5]: 100 µg/mL
MIC [6]: 3.13 µg/mL
MIC ([7]; IFO3320, HIA medium plate, 37° C., 18 hours): 3.13 µg/mL
MIC (Shigella flexneri (K-A)): 1.56 µg/mL
MIC [8]: > 100 µg/mL
MIC (Proteus vulgaris (OX-19); 18 h): 1.56 µg/mL
MIC [9]: > 100 µg/mL
MIC [10]: 50 µg/mL
MIC [11]: > 100 µg/mL
MIC [12]: > 100 µg/mL
MIC [13]: > 100 µg/mL
MIC (Proteus morganii (C-39)): > 100 µg/mL
MIC (Proteus rettgeri (T-2)): 12.5 µg/mL
MIC [14]: 3.13 µg/mL
MIC [15, 26]: 0.2 µg/mL
MIC [16]: 1.56 µg/mL
MIC (Escherichia coli (26RO3)): 50 µg/mL
MIC [17]: 6.25 µg/mL
MIC ([18]; ATCC10031, 18 h): 1.56 µg/mL
MIC [19]: 25 µg/mL
MIC (Escherichia coli (NIHJ)): 3.13 µg/mL
MIC [20]: > 100 µg/mL
MIC (Escherichia coli (K-12)): 3.13 µg/mL
MIC [21]: > 100 µg/mL
MIC [22]: > 100 µg/mL
MIC [23]: > 100 µg/mL
MIC ([24]; 10^5 cells/ml inoculated): > 200 µg/mL
MIC ([24]; 10^6 cells/ml inoculated): > 200 µg/mL
MIC ([24]; 10^7 cells/ml inoculated): > 200 µg/mL
effectiveness for infections caused by Pseudomonas aeruginosa (Pseudomonas aeruginosa): ineffective for infections caused by Pseudomonas aeruginosa
effectiveness for infections caused by Gram-positive or Gram-negative bacteria [25]: effective as therapeutic agents for infections caused by Gram-positive or Gram-negative bacteria
